Reference: patent US12194046B2 (priority 2021, dated 2025)

Tests used:
[1] = Pharmacokinetic study: plasma and brain concentrations after a single oral (gavage) dose in rats; type: in vivo, Sprague-Dawley rats; conditions: oral gavage 2 mg/kg
Excerpt: Serial blood samples were collected from three animals per group per timepoint prior to dosing and at 0.25, 0.5, 1, 2, 3 4, 6, 8, 10, 12, and 14-hours post dose. No more than three blood samples were collected from individual animals with the last sample being a terminal blood draw. Terminal brain samples were collected from three animals per group at 1, 4, 8, and 14-hours post dose. Blood samples were collected into tubes containing sodium heparin, and then processed for plasma and stored frozen until bioanalysis. Brain samples were collected following the terminal blood collection, rinsed with saline, and stored frozen until bioanalysis.
Non-compartmental pharmacokinetic parameter estimates were calculated from the mean plasma concentration-time data.
Animals were fasted overnight prior to dose administration. Water was provided ad libitum. Food was returned after the collection of the 4-hour samples.
Prior to dosing, the body weight of each animal was recorded. Doses (rounded to the nearest 0.001 mL) were calculated based on the pretreatment body weight (kg) and a dose volume of 10 mL/kg. […] Dosing syringes were weighed immediately prior to and immediately after dosing each animal, and the quantity of formulation administered to each animal was determined from the difference in syringe weights.
Immediately after the 1, 4, 8 and 14-hour blood collections, three animals/group were euthanized and the brain was dissected out of each rat. […] Brain weights were calculated for each sample. […]
The concentration-time data were analyzed to fit an extra-vascular (oral gavage) dosing plasma analysis model (200) using the software WinNonlin Phoenix version 6.3 (Pharsight).
Areas-under-the-plasma concentration-time curves (AUC) were estimated using the linear trapezoidal rule. […] Apparent T1/2 was calculated using the slope of the log-linear terminal phase of the concentration-time curve, defined by a minimum of three plasma concentration-time points. Half-lives are reported if the correlation for the regression line, as measured by r squared, is ≥0.9, when rounded.

[2] = test system: human hepatocytes
Protocol: Cryopreserved human hepatocytes were thawed and suspended into 50 ml of InVitro GRO HT-medium. The cells were centrifuged (50 g, 5 min) and resuspended into InVitro GRO KHB-medium (protein free). The cell density and viability were determined by trypan blue exclusion method.
Instrumentation: Waters Acquity UPLC+Waters TQ-S triple quadrupole MS; Column: Phenomenex Kinetex Biphenyl (2.1×100 mm, 1.8 μm) column with guard filter; Software: MassLynx 4.2.
The samples were analysed at 0, 30, 60, 90, and 120 minutes (with and without hepatocytes) by LC/MS/MS to monitor substrate depletion and formation of metabolites theophylline, theobromine and paraxanthine.

[3] = clinical; conditions: both, human, in vivo, po

| SMILES | Cmax, corr (molecular weight corrected) ([1]; rat plasma, caffeine values multiplied by 0.956) | formation of metabolite theobromine [2] | substrate depletion (disappearance) [2] | half-life ([3]; 50 mg) | AUC(0-t) ([3]; 52.3 mg) | Cmax ([3]; 52.3 mg) | MRT ([3]; 52.3 mg) | half-life ([3]; 250 mg) | AUC(0-t) ([3]; 261.7 mg) | Cmax ([3]; 261.7 mg) | MRT ([3]; 261.7 mg) | total brain exposure (AUClast,corr) higher than caffeine ([1]; rat brain, molecular weight corrected) | total systemic exposure (AUCinf) higher than caffeine ([1]; rat plasma, molecular weight corrected) |
| --- | --- | --- | --- | --- | --- | --- | --- | --- | --- | --- | --- | --- | --- |
| Cn1c(=O)c2c(ncn2C)n(C)c1=O [caffeine, reference compound] | 2486 ng/mL | not detected | No clear disappearance | 5.41 h | 47.2 µM·h | 5.32 µM | 7.3 h | 4.25 h | 206 µM·h | 25.1 µM | 4.3 h |  |  |
| [2H]C([2H])([2H])n1c(=O)c2c(ncn2C([2H])([2H])[2H])n(C([2H])([2H])[2H])c1=O [d9-caffeine, 1,3,7-tri-trideuteromethylxanthine] |  | not detected | No clear disappearance | 32.2 h | 192 µM·h | 6.62 µM | 19.7 h | 25.6 h | 972 µM·h | 36.5 µM | 18.9 h | approximately 52% | approximately 77% |
